{"source": "patent US8470883B2", "about": "“Preservative system and composition based on glycinate and hydroxyethyl sulfonate salt combination” (Conopco, Inc., priority 2010, dated 2013)", "test_system": "Pseudomonas aeruginosa ATCC 9027", "assay": "Challenge Test for the Evaluation of Preservative Capacity of Liquid Detergent and Personal Products", "type": "cell-based", "settings": "aqueous formula, each active component 5%, pH 7.6", "procedure": "Experiments were conducted to evaluate antimicrobial activity against Pseudomonas aeruginosa of aqueous formulas containing sodium hydroxyethyl sulfonate, sodium cocoyl glycinate and combinations of these two materials. Samples were prepared at room temperature by mixing together sodium cocoyl glycinate and/or sodium hydroxyethyl sulfonate and water. The pH was adjusted by addition of aqueous hydrochloric acid to reach a 7.6 value. Amounts of each of the active components was 5%. Challenge Test for the Evaluation of Preservative Capacity of Liquid Detergent and Personal Products Pseudomonas aeruginosa ATCC 9027 obtained from American Type Culture Collection, Manassas, Va. 20108. 20 grams of product were inoculated with 0.2 ml of the microorganism at a level of 1.06E+07 or Log 7. A single inoculation was performed. At 2 day, 7 day, 14 day and 21 day time points after inoculation a 1 gram sample was aseptically removed into a neutralizing fluid (TAT Broth) and plated using Letheen Agar. The plates were incubated at 30° C. for 7 days. At the end of the incubation time the plates were removed and examined for microbial growth. The microorganisms recovered were converted into Log10 and compared to initial inoculum count which then determined the Log Reduction. Logarithmic functions are the inverse of exponential functions. Log reduction was determined by the initial inoculum count minus the counts at each sampling time point.", "key": {"[1]": {"settings": "2 day after single inoculation (1.06E+07, Log 7)"}, "[2]": {"settings": "7 day after single inoculation (1.06E+07, Log 7)"}, "[3]": {"settings": "14 day after single inoculation (1.06E+07, Log 7)"}, "[4]": {"settings": "21 day after single inoculation (1.06E+07, Log 7)"}}}
{"compound": "sodium cocoyl glycinate", "values": [{"measurement": "Log Reduction Value", "setting": "[1]", "value": 1.1}, {"measurement": "Log Reduction Value", "setting": "[2]", "value": 1.1}, {"measurement": "Log Reduction Value", "setting": "[3]", "value": 0.8}, {"measurement": "Log Reduction Value", "setting": "[4]", "value": 0.2}]}
{"compound": "O=S(=O)([O-])CCO.[Na+]", "note": "[Sodium Hydroxyethyl Sulfonate, sodium hydroxyethyl sulfonate]", "values": [{"measurement": "Log Reduction Value", "setting": "[1]", "value": 1.1}, {"measurement": "Log Reduction Value", "setting": "[2]", "value": 0.9}, {"measurement": "Log Reduction Value", "setting": "[3]", "value": 0.8}, {"measurement": "Log Reduction Value", "setting": "[4]", "value": 0.5}]}
